In general, pIC50 refers to the negative decadic logarithm of the IC50, by convention in mol/L. A high value points to a low IC50. In general, inhibition in vivo refers to the percentage by which the read-out fell short of the control. Lower therefore signals a response near the control.

The target in one assay is T1, substance P receptor (Homo sapiens, UniProt P25103).
T1 construct: The receptor was prepared from human lymphoblast cells (IM-9); endogenous in cells; host or cells: IM-9 human lymphoblast cells (crude membrane preparation)
The assay can be described thus: Radioligand receptor binding inhibitory activity using receptor from human lymphoblast cells (IM-9), 125I-BHSP. The note with it: human IM-9 cell receptor, 25° C., 30 minutes, pH 7.4, n=1. The protocol: Radioligand receptor binding inhibitory activity
Binding inhibitory activity using receptor from human lymphoblast cells (IM-9)
The method of A. Margaret "Molecular Pharmacology 42, p.458 (1992)" was modified and used. The receptor was prepared from human lymphoblast cells (IM-9). IM-9 cells (2×10^5 cells/ml) were inoculated and incubated for 3 days (one liter), which was then subjected to centrifuge for 5 minutes at 500×g to obtain cell pellets. The pellets were washed once with phosphate buffer (Flow Laboratories, CAT. No. 28-103-05), which were then crushed using Polytron.homogenizer "Kinematika, Germany" in 30 ml of 50 mM Tris-HCl buffer (pH 7.4) containing 120 mM sodium chloride, 5 mM potassium chloride, 2 μg/ml chymostatin, 40 μg/ml bacitracin, 5 μg/ml phosphoramidon, 0.5 mM phenylmethyl sulfonyl fluoride, 1 mM ethylenediamine tetra-acetic acid, which was subjected to centrifuge at 40,000×g for 20 minutes. The residue was washed twice with 30 ml of the above-mentioned buffer, which was then preserved frozen (-80° C.) as a specimen of the receptor.
The specimen was suspended in a reaction buffer (50 mM Tri-HCl buffer (pH 7.4), 0.02% bovine serum albumin, 1 mM phenylmethylsulfonyl fluoride, 2 μg/chymostatin, 40 μg/ml bacitracin, 3 mM manganese chloride) and 100 ul portion was the suspension was used in the reaction. After addition of the sample and ^125 I-BHSP (0.46 KBq), the reaction was allowed to proceed in 0.2 ml of reaction buffer at 25° C. for 30 minutes. The amount of nonspecific binding was determined by adding substance P at a final concentration of 2×10^-6 M. After the reaction, using a cell harvester (290 PHD, Cambridge Technology, Inc, U.S.A.), rapid filtration was carried out through a glass filter (GF/B, Whatman, U.S.A.) to stop the reaction. After washing three times with 250 ul of 50 mM of Tris-HCl buffer (pH 7.4) containing 0.02% bovine serum albumin, the radioactivity remaining on the filter was determined with a gamma counter. Before use, the filter was immersed in 0.1% polyethyleneimine for 24 hours and air-dried. […] (Radioligand means substance P labelled with ^125 I.) The number of this experiment is one.

Assay [1] deals with plasma extravasation induced by capsaicin in trachea. The assay can be described thus: Inhibitory effect on plasma extravasation induced by capsaicin in trachea of guinea pigs. The note with it: Cavia porcellus, iv, 5 min, 5 min before capsaicin (150 μg/kg i.v.), guinea pig trachea, n=6; for inhibition in vivo at 0.1 mg/kg: 0.1 mg/kg i.v.; for inhibition in vivo at 0.03 mg/kg: 0.03 mg/kg i.v. It counts as in vivo, guinea pigs (Hartley type white male). As for the experimental part:
Inhibitory effect on plasma extravasation induced by capsaicin in trachea of guinea pigs
Guinea pigs (Hartley type white male guinea pigs), (n=6) were anesthetized with 35 mg/kg of pentobarbital injected intraperitoneally (i.p.), then test compounds were administered intravenously (i.v.). After 5 minutes, a mixed solution of capsaicin (150 μg/kg) and Evans' blue dye (20 mg/kg) was administered intravenously to cause reaction. Ten minutes later, test animals were sacrificed by cutting the aorta, then perfused through pulmonary artery with 50 ml of physiological saline. The trachea was excised, and its wet weight was measured. The trachea was incubated at room temperature in 1 ml of acetone-0.3% sodium sulfate (7:3) overnight and Evans' blue dye was extracted from the trachea. The extract solution was centrifuged at 2800 rpm for 5 minutes. The amount of Evans' blue dye in the supernatant was quantified by measuring absorbance at […].
Plasma extravasation was expressed in terms of the amount of Evans' blue dye (μg) relative to the weight of the trachea (g). The efficacy of the drug was evaluated by calculating the % inhibition in accordance with the following formula. [formula] A: the amount of Evan's blue dye (μg/g) in each test animal B: the mean amount of Evan's blue dye (μg/g) of the group untreated with capsaicin.
C: the mean amount of Evan's blue dye (μg/g) of control group

Each structure is given as a SMILES string. pIC50: −log10 of the molar value.

T1 sequence (P25103 whole entry): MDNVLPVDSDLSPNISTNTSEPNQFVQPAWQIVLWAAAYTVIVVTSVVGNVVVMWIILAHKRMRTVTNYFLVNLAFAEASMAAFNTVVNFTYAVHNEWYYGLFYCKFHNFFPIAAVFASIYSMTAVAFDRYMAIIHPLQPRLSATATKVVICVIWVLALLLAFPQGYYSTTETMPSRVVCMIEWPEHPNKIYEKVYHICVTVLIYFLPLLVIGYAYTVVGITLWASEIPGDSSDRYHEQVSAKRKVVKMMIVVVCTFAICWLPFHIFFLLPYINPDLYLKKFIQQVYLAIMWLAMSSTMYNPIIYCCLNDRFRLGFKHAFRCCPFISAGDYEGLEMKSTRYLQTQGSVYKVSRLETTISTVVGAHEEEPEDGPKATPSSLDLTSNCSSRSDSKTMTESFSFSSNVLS

For `CN(Cc1cc(C(F)(F)F)cc(C(F)(F)F)c1)C(=O)c1c(-c2ccc(F)cc2)c2ccn(C)c2c(=O)n1C` [Example 39, N-[3,5-Bis(trifluoromethyl)benzyl]-4-(4-fluorophenyl)-6,7-dihydro-N,1,6-trimethyl-7-oxo-5-pyrrolo[2,3-c]pyridinecarboxamide], the pIC50 on substance P receptor is 9.55. In addition, in assay [1], testing at 0.1 mg/kg gave an inhibition in vivo of 67.9%. The molecule `Cc1ccc(-c2c3c(c(=O)n(C)c2C(=O)N(C)Cc2cc(C(F)(F)F)cc(C(F)(F)F)c2)CN(C)CC3)cc1` [Example 59, N-[3,5-Bis(trifluoromethyl)benzyl]-1,2,5,6,7,8-hexahydro-N,2,7-trimethyl-4-(4-methylphenyl)-1-oxo-3-pyrido[3,4-c]pyridinecarboxamide] showed a pIC50 at substance P receptor of 9.92. The same molecule registered an inhibition in vivo at 0.03 mg/kg in assay [1] of 55%. Turning to `CN(Cc1cc(C(F)(F)F)cc(C(F)(F)F)c1)C(=O)c1c(-c2ccccc2)c2c(c(=O)n1C)CNCC2` [Example 54, N-[3,5-Bis(trifluoromethyl)benzyl]-1,2,5,6,7,8-hexahydro-N,2-dimethyl-1-oxo-4-phenyl-3-pyrido[3,4-c]pyridinecarboxamide], the negative-log IC50 (pIC50) on substance P receptor is 9.40. Testing at 0.1 mg/kg in assay [1] gave an inhibition in vivo of 48.3%. For `CN(Cc1cc(C(F)(F)F)cc(C(F)(F)F)c1)C(=O)c1c(-c2ccc(F)cc2)c2ccsc2c(=O)n1C` [Example 13, N-[3,5-Bis(trifluoromethyl)benzyl]-4-(4-fluorophenyl)-6,7-dihydro-N, 6-dimethyl-7-oxo-5-thieno[2,3-c]pyridinecarboxamide], at substance P receptor, the pIC50 was 10.10. This molecule gave an inhibition in vivo at 0.1 mg/kg in assay [1] of 76.1%. Consider `CN(Cc1cc(C(F)(F)F)cc(C(F)(F)F)c1)C(=O)c1c(-c2ccccc2)c2cccnc2c(=O)n1C` [Example 36, N-[3,5-Bis(trifluoromethyl)benzyl]-7,8-dihydro-N, 7-dimethyl-8-oxo-5-phenyl-6-pyrido[3,4-b]pyridinecarboxamide], for which the pIC50 on substance P receptor is 9.47. In assay [1], this molecule registered an inhibition in vivo at 0.03 mg/kg of 54.3%. Molecule `CN(Cc1cc(C(F)(F)F)cc(C(F)(F)F)c1)C(=O)c1c(-c2ccc(F)cc2)c2c(c(=O)n1C)CCCN2` [Example 27, N-[3,5-Bis(trifluoromethyl)benzyl]-8-(4-fluorophenyl)-1,2,3,4,5,6-hexahydro-N, 6-dimethyl-5-oxo-7-pyrido[4,3-b]pyridinecarboxamide] had a pIC50 on substance P receptor of 9.74. The inhibition in vivo at 0.1 mg/kg in assay [1] came to 74%. For `CN(Cc1cc(C(F)(F)F)cc(C(F)(F)F)c1)C(=O)c1c(-c2ccc(F)cc2)c2sccc2c(=O)n1C` [Example 17, N-[3,5-Bis(trifluoromethyl)benzyl]-7-(4-fluorophenyl)-4,5-dihydro-N, 5-dimethyl-4-oxo-6-thieno[3,2-c]pyridinecarboxamide], in that order: 9.51 and 51.5%. At substance P receptor, `CN(Cc1cc(C(F)(F)F)cc(C(F)(F)F)c1)C(=O)c1c(-c2ccc(F)cc2)c2ccncc2c(=O)n1C` [Example 8, N-[3,5-Bis(trifluoromethyl)benzyl]-4-(4-fluorophenyl)-1,2-dihydro-N, 2-dimethyl-1-oxo-3-pyrido[3,4-c]pyridine carboxamide] gave a pIC50 of 9.77. At 0.1 mg/kg the inhibition in vivo in assay [1] was 64.9%. With `Cc1ccc(-c2c(C(=O)N(C)Cc3cc(C(F)(F)F)cc(C(F)(F)F)c3)n(C)c(=O)c3ncccc23)cc1` [Example 56, N-[3,5-Bis(trifluoromethyl)benzyl]-7,8-dihydro-N, 7-dimethyl-5-(4-methylphenyl)-8-oxo-6-pyrido[3,4-b]pyridinecarboxamide], the negative logarithm of the IC50 (pIC50) on substance P receptor is 9.47. The molecule further returned an inhibition in vivo at 0.03 mg/kg in assay [1] of 58.1%. The molecule `Cc1ccccc1-c1c2c(c(=O)n(C)c1C(=O)N(C)Cc1cc(C(F)(F)F)cc(C(F)(F)F)c1)CCCN2` [Example 26, N-[3,5-Bis(trifluoromethyl)benzyl]-1,2,3,4,5,6-hexahydro-N, 6-dimethyl-8-(2-methylphenyl)-5-oxo-7-pyrido[4,3-b]pyridinecarboxamide] gave a pIC50 on substance P receptor of 10.30. This molecule gave an inhibition in vivo at 0.03 mg/kg in assay [1] of 46.2%. On substance P receptor, `Cc1ccc(-c2c(C(=O)N(C)Cc3cc(C(F)(F)F)cc(C(F)(F)F)c3)n(C)c(=O)c3cnccc23)cc1` [Example 58, N-[3,5-Bis(trifluoromethyl)benzyl]-1,2-dihydro-N, 2-dimethyl-4-(4-methylphenyl)-1-oxo-3-pyrido[3,4-c]pyridinecarboxamide] had a pIC50 of 9.14. For the same molecule, in assay [1], 0.1 mg/kg produced 35.2% inhibition in vivo. As for `CN(Cc1cc(C(F)(F)F)cc(C(F)(F)F)c1)C(=O)c1c(-c2ccc(F)cc2)c2c(c(=O)n1C)CNCC2` [Example 53, N-[3,5-Bis(trifluoromethyl)benzyl]-4-(4-fluorophenyl)-1,2,5,6,7,8-hexahydro-N,2-dimethyl-1-oxo-3-pyrido[3,4-c]pyridinecarboxamide], the pIC50 on substance P receptor is 9.82. In addition, at 0.1 mg/kg the inhibition in vivo in assay [1] was 59.9%. For `CN(Cc1cc(C(F)(F)F)cc(C(F)(F)F)c1)C(=O)c1c(-c2ccc(F)cc2)c2nccnc2c(=O)n1C` [Example 7, N-[3,5-Bis(trifluoromethyl)benzyl]-8-(4-fluorophenyl)-5,6-dihydro-N, 6-dimethyl-5-oxo-7-pyrido[3,4-b]pyrazine carboxamide], the pIC50 at substance P receptor was 9.70. Further, at 0.1 mg/kg the inhibition in vivo in assay [1] was 71.9%. Consider `CN1CCc2c(-c3ccccc3)c(C(=O)N(C)Cc3cc(C(F)(F)F)cc(C(F)(F)F)c3)n(C)c(=O)c2C1` [Example 50, N-[3,5-Bis(trifluoromethyl)benzyl]-1,2,5,6,7,8-hexahydro-N,2,7-trimethyl-1-oxo-4-phenyl-3-pyrido[3,4-c]pyridinecarboxamide], for which, at substance P receptor, the pIC50 was 9.40. In assay [1], this molecule returned an inhibition in vivo at 0.1 mg/kg of 52.2%. In the case of `CN(Cc1cc(C(F)(F)F)cc(C(F)(F)F)c1)C(=O)c1c(-c2ccc(F)cc2)c2cccnc2c(=O)n1C` [Example 1, N-[3,5-Bis(trifluoromethyl)benzyl]-5-(4-fluorophenyl)-7,8-dihydro-N, 7-dimethyl-8-oxo-6-pyrido[3,4-b]pyridine carboxamide], at substance P receptor, the pIC50 was 10.10. This molecule displayed an inhibition in vivo at 0.03 mg/kg in assay [1] of 76.1%. `CN(Cc1cc(C(F)(F)F)cc(C(F)(F)F)c1)C(=O)c1c(-c2ccc(F)cc2)c2scnc2c(=O)n1C` [Example 41, N-[3,5-Bis(trifluoromethyl)benzyl]-7-(4-fluorophenyl)-4,5-dihydro-N, 5-dimethyl-4-oxo-6-thiazolo[4,5-c]pyridinecarboxamide]: on substance P receptor, the negative logarithm of the IC50 (pIC50) was 8.96. For the same molecule, the inhibition in vivo at 0.1 mg/kg in assay [1] was 46.9%. For `CN(Cc1cc(C(F)(F)F)cc(C(F)(F)F)c1)C(=O)c1c(-c2ccccc2)c2c(c(=O)n1C)N(C)CCC2` [Example 49, N-[3,5-Bis(trifluoromethyl)benzyl]-1,2,3,4,7,8-hexahydro-5-phenyl-N,1,7-trimethyl-8-oxo-6-pyrido[3,4-b]pyridinecarboxamide], in that order: 8.89 and 66.7%. With `CN(Cc1cc(C(F)(F)F)cc(C(F)(F)F)c1)C(=O)c1c(-c2ccc(F)cc2)c2cc(Cl)cnc2c(=O)n1C` [Example 6, N-[3,5-Bis(trifluoromethyl)benzyl]-3-chloro-5-(4-fluorophenyl)-7,8-dihydro-N, 7-dimethyl-8-oxo-6-pyrido[3,4-b]pyridinecarboxamide], the pIC50 at substance P receptor is 8.96.
